Laboratory results as given in paper PMC6137088, “The Role of Outer Membrane Proteins and Lipopolysaccharides for the Sensitivity of Escherichia coli to Antimicrobial Peptides” (Frontiers in Microbiology, 2018).
Where a name gives a salt, the structure may show the parent alone. Where a SMILES comes first, the peptide text is derived from it. Bridges are numbered along the chain shown (N, C = ends). Where no end group is shown, it is not given here. [ ]: non-standard residue; d: D form. The star is where a group is joined. X1 = CC[C@H](C)CCCCC(=O)*; Dab = NCC[C@H](N)C(=O)O

Legend:
[1] = system: E. coli BW25113 waaG::kan; assay type: cell-based, Escherichia coli; conditions: for MIC: Table 3, BW25113 waaG::kan, Mueller-Hinton-II, 16–20 h, duplicates (*) or triplicates
Text: (§1) The E. coli strains 470, F632, F653 and F2513 were kindly provided by Prof. H. Brade and Prof. S. Muller-Loennies, Research Center Borstel, Leipniz-Center for Medicine and Biosciences, Germany. E. coli BW25113 (CGSC#:7636), a derivative of F^−, λ^− E. coli K12 strain BD792 is the wild-type strain which was used in the generation of the KEIO collection and ordered from the Coli Genetic Stock Centre (CGSC, Yale University). E. coli JW3596, E. coli JW3024, E. coli JW3595, E. coli JW3606, E. coli JW0212, E. coli JW1667, E. coli JW0554, E. coli JW3605 and E. coli JW3600 are isogenic mutants of waaC, waaE, waaF, waaG, gmhA (lpcA), lpp, ompT, waaP, or waaY derived from the parental strain E. coli BW25113 and were ordered from the KEIO collection (Baba et al., [2006]). E. coli ATCC25922 is a clinical isolate, serotype O6, often used as control strain in antimicrobial susceptibility testing was ordered from the ATCC strain collection. All strains were grown in Mueller-Hinton-II medium and incubation took place aerobically at 37°C for 18–20 h.
(§2) The minimum inhibitory concentrations (MICs) of the AMPs were measured in 96-well microtiter plates according the Clinical and Laboratory Standards Institute [CLSI, formerly National Committee for Clinical Laboratory Standards (NCCLS)] (Wikler et al., [2009]). Liquid Mueller-Hinton-II medium containing increasing concentrations of AMPs is inoculated with a defined number of cells (~10^5 CFUs/ml) in 96-well microtiter plates (polypropylene). Each microtiter plate includes a positive growth control and a negative control (sterile control). After incubation, the minimal inhibitory concentration (MIC) is determined by the lowest concentration showing no visible growth. All plates were incubated for 16–20 h.

[2] = system: E. coli BW25113 waaP::kan; assay type: cell-based, Escherichia coli; conditions: for MIC: Table 3, BW25113 waaP::kan, Mueller-Hinton-II, 16–20 h, duplicates (*) or triplicates
Text: as §1, §2

[3] = system: E. coli BW25113 waaE::kan; assay type: cell-based, Escherichia coli; conditions: for MIC: Table 3, BW25113 waaE::kan, Mueller-Hinton-II, 16–20 h, duplicates (*) or triplicates
Text: as §1, §2

[4] = system: E. coli BW25113; assay type: cell-based, Escherichia coli; conditions: for MIC: Table 3, E. coli BW25113 wild type, Mueller-Hinton-II, ~10^5 CFUs/ml, 16–20 h, duplicates (*) or triplicates
Text: as §1, §2

[5] = system: E. coli BW25113 ompT::kan; assay type: cell-based, Escherichia coli; conditions: for MIC: Table 3, BW25113 ompT::kan, Mueller-Hinton-II, 16–20 h, duplicates (*) or triplicates
Text: as §1, §2

[6] = system: E. coli BW25113 lpp::kan; assay type: cell-based, Escherichia coli; conditions: for MIC: Table 3, BW25113 lpp::kan, Mueller-Hinton-II, 16–20 h, duplicates (*) or triplicates
Text: as §1, §2

[7] = system: E. coli BW25113 gmhA::kan; assay type: cell-based, Escherichia coli; conditions: for MIC: Table 3, BW25113 gmhA::kan, Mueller-Hinton-II, 16–20 h, duplicates (*) or triplicates
Text: as §1, §2

[8] = system: E. coli BW25113 waaF::kan; assay type: cell-based, Escherichia coli; conditions: for MIC: Table 3, BW25113 waaF::kan, Mueller-Hinton-II, 16–20 h, duplicates (*) or triplicates
Text: as §1, §2

[9] = system: E. coli BW25113 waaY::kan; assay type: cell-based, Escherichia coli; conditions: Table 3, Mueller-Hinton-II, 16–20 h, duplicates (*) or triplicates
Text: as §1, §2

[10] = system: E. coli BW25113 waaC::kan; assay type: cell-based, Escherichia coli; conditions: for MIC: Table 3, BW25113 waaC::kan, Mueller-Hinton-II, 16–20 h, duplicates (*) or triplicates
Text: as §1, §2

[11] = system: E. coli ATCC25922 LPS mutants (ΔwaaC, ΔwaaE, ΔwaaF, ΔwaaG); assay type: cell-based, Escherichia coli; conditions: E. coli ATCC25922 background (text prints ATCC29522); summary of Table 6
Text: as §1, with “[…],” for “E. coli JW3605 and E. coli JW3600 are isogenic mutants of waaC, waaE, waaF, waaG,”, “or waaY derived from the parental strain E. coli BW25113 and were ordered from the” left out
as §2

[12] = system: S. typhimurium LT2; assay: MIC testing (CLSI broth microdilution); assay type: cell-based; conditions: Table 6, triplicates
Procedure: as §2

[13] = system: Y. ruckeri 392/2003; assay: MIC testing (CLSI broth microdilution); assay type: cell-based; conditions: Table 6, triplicates
Procedure: as §2

[14] = system: E. coli ATCC25922 ΔwaaG; assay type: cell-based, Escherichia coli; conditions: Table 6, triplicates
Text: as §1, §2

[15] = system: E. coli ATCC25922; assay type: cell-based, Escherichia coli; conditions: triplicates; for Antimicrobial activity: MIC: Table 6, E. coli ATCC25922 wild-type
Text: as §1, §2

[16] = system: E. coli ATCC25922 ΔwaaE; assay type: cell-based, Escherichia coli; conditions: Table 6, triplicates
Text: as §1, §2

[17] = system: E. coli ATCC25922 ΔwaaC; assay type: cell-based, Escherichia coli; conditions: Table 6, triplicates
Text: as §1, §2

[18] = system: E. coli ATCC25922 ΔwaaF; assay type: cell-based, Escherichia coli; conditions: Table 6, triplicates
Text: as §1, §2

[19] = system: E. coli F653 (R3); assay type: cell-based, Escherichia coli; conditions: Table 4; E. coli F653 (R3 prototype, rough LPS); triplicates
Text: as §1, §2

[20] = system: E. coli F632 (R2); assay type: cell-based, Escherichia coli; conditions: Table 4; E. coli F632 (R2 prototype, rough LPS); triplicates
Text: as §1, §2

[21] = system: E. coli F470 (R1); assay type: cell-based, Escherichia coli; conditions: Table 4; E. coli F470 (R1 prototype, rough LPS); triplicates
Text: as §1, §2

[22] = system: E. coli F2513 (R4); assay type: cell-based, Escherichia coli; conditions: Table 4; E. coli F2513 (R4 prototype, rough LPS); triplicates
Text: as §1, §2

Molecule	MIC [1] [µg/mL]	MIC [2] [µg/mL]	MIC [3] [µg/mL]	MIC [4] [µg/mL]	MIC [8] [µg/mL]	MIC [9] [µg/mL]	MIC [10] [µg/mL]	MIC / antimicrobial activity in LPS mutants harboring a deletion in waaC, waaE, waaF, or waaG [11] [µg/mL]	Antimicrobial activity: MIC [12] [µg/mL]	Antimicrobial activity: MIC [13] [µg/mL]	Antimicrobial activity: MIC [14] [µg/mL]	Antimicrobial activity: MIC [15] [µg/mL]	Antimicrobial activity: MIC [16] [µg/mL]	Antimicrobial activity: MIC [17] [µg/mL]	Antimicrobial activity: MIC [18] [µg/mL]	also measured
CC[C@H](C)CCCCC(=O)N[C@@H](CCN)C(=O)N[C@H](C(=O)N[C@@H](CCN)C(=O)N[C@H]1CCNC(=O)[C@H]([C@@H](C)O)NC(=O)[C@H](CCN)NC(=O)[C@H](CCN)NC(=O)[C@H](CC(C)C)NC(=O)[C@@H](CC(C)C)NC(=O)[C@H](CCN)NC1=O)[C@@H](C)O [Colistin, colistin sulfate] (X1-[Dab]T[Dab][Dab][Dab][dL]L[Dab][Dab]T; lactam 4-C (inferred); N-terminus assumed)	0.063 to 0.125	0.125 to 0.25	0.063 to 0.125	0.125 to 0.25	0.063	0.125 to 0.25	0.063 to 0.125	–	–	–	–	–	–	–	–	increase in antimicrobial activity against BW25113 waaG::kan compared to parental BW25113 ([1]; from MIC values of Table 3): up to 2 fold; increase in antimicrobial activity in a waaP mutant background compared to the wild-type strain (times) ([2]; from MIC values of Table 3): not changed; increase in antimicrobial activity against BW25113 waaE::kan compared to parental BW25113 ([3]; from MIC values of Table 3): up to 2 fold; MIC [5]: 0.125 to 0.25 µg/mL; increase of antimicrobial activity in the ompT mutant compared to the parental strain BW25113 (factor) ([5]; from MIC values of Table 3): unchanged; MIC [6]: 0.063 to 0.125 µg/mL; increase in antimicrobial susceptibility of the lpp mutant compared to the wild-type (factor) ([6]; from MIC values of Table 3): 2; MIC [7]: 0.063 µg/mL; increase in antimicrobial activity against BW25113 gmhA::kan compared to parental BW25113 ([7]; from MIC values of Table 3): up to 2 fold; increase in antimicrobial activity against BW25113 waaF::kan compared to parental BW25113 ([8]; from MIC values of Table 3): up to 2 fold; increase in antimicrobial activity against BW25113 waaC::kan compared to parental BW25113 ([10]; from MIC values of Table 3): up to 2 fold
GLRKRLRKFRNKIKEKKKKIGQKIQGLLPKLAPRTDY [L17K]	–	–	–	–	–	–	–	4 to 8	16	≥64	8	≥64	8	8	8	–
GLRKRLRKFRNKIKEKLKKIGQKGQGLLPKLAPRTDY [I24G]	–	–	–	–	–	–	–	4 to 8	8 to 16	32	8	≥64	8	8	8	–
SWLSKTAKKLENSAKKRISEGIAIAIQGGPR [Cecropin P1]	16	16 to 32	8	16 to 32	4	32	8	–	–	–	–	–	–	–	–	MIC [5]: 16 ^* μg/ml; Antimicrobial activity (MIC) [19]: 32 µg/mL; Antimicrobial activity (MIC) ([15]; Table 4, E. coli ATCC25922 (smooth LPS)): 32 µg/mL; Antimicrobial activity (MIC) [20]: 32 µg/mL; Antimicrobial activity (MIC) [21]: 32 µg/mL; Antimicrobial activity (MIC) [22]: 16 to 32 µg/mL
GLRKRLRKFRNKIKEKLKKEGQKIQGLLPKLAPRTDY [I20E]	–	–	–	–	–	–	–	4 to 8	8	32	8	≥64	4	4	4	–
GLRKKFRKTRKRIQKLGRKIGKTGRKVWKAWREYGQIPYPCRI [Cap11]	8	8 to 16	8	8	8	8 to 16	8	–	–	–	–	–	–	–	–	Antimicrobial activity (MIC) ([4]; Table 4, E. coli BW25113 (K12 core type), triplicates): 8 µg/mL; MIC [6]: 8 ^* μg/ml; Antimicrobial activity (MIC) [19]: 16 µg/mL; MIC [7]: 8 ^* μg/ml; Antimicrobial activity (MIC) [20]: 8 µg/mL; Antimicrobial activity (MIC) [21]: 16 µg/mL; Antimicrobial activity (MIC) [22]: 4 to 8 µg/mL
GLRKRLRKFRNKIKEKLKKIGQKIQGPLPKLAPRTDY [L27P]	–	–	–	–	–	–	–	4 to 8	8	32	4	≥64	4	8	4	–
